Source: publication PMC4359714 (Naunyn-Schmiedeberg's Archives of Pharmacology, 2015)
Where two headings read alike, the source gives them in different places.

Experiments:
[1] = biological target: T1, rat TRPA1 (Rattus norvegicus, UniProt Q6RI86); experiment: Luminescence (aequorin) readout of intracellular calcium, CHO cells expressing rat TRPA1, AITC activation; format: cell-based
T1 construct: expressed in transfected cells; host or cells: CHO, T-REx tetracycline-inducible system (Invitrogen), co-transfected with aequorin
From the text: (§1) Stable Chinese hamster ovary (CHO) cell lines expressing rat TRPA1, rat TRPM8, rat TRPV3, and human TRPV4 were generated using the tetracycline-inducible T-REx™ expression system from Invitrogen (Carlsbad, CA) and a stable CHO cell line expressing rat TRPV1 was generated using a constitutive expression system (Klionsky et al. [2007]). To enable a luminescence readout based on intracellular increase in calcium (Le Poul et al. [2002]), each cell line was also co-transfected with pcDNA3.1 plasmid containing jelly fish aequorin cDNA. Twenty-four hours before the assay, cells were seeded in 96-well plates and all TRP channel expression, except for TRPV1, was induced with 0.5 ug/mL tetracycline. […] Luminescence was measured by a CCD camera-based FLASH-luminometer built by Amgen, Inc. The following agonists were used to activate TRP channels: 0.5 uM capsaicin for TRPV1, 80 uM allyl isothiocyanate (AITC) for TRPA1, 1 uM icilin or cold buffer (12 °C) for TRPM8, 200 uM aminoethoxydiphenyl borate (2-APB) for TRPV3, and 1 uM 4α-phorbol 12,13-didecanoate (4α-PDD) for TRPV4. Antagonist IC50 values were calculated using GraphPad Prism 4.01 (GraphPad Software Inc, San Diego, CA).

[2] = biological target: T2, rat TRPV1 (Rattus norvegicus, UniProt O35433); experiment: Luminescence (aequorin) readout of intracellular calcium, CHO cells expressing rat TRPV1, capsaicin activation; format: cell-based; conditions: 0.5 uM capsaicin, read-out: rTRPV1 IC50
T2 construct: expressed in transfected cells; host or cells: CHO, constitutive expression, co-transfected with aequorin
From the text: as §1

[3] = Pharmacokinetics in plasma and brain, male Sprague-Dawley rats; format: in vivo; conditions: male Sprague-Dawley rat
Experimental: Plasma pharmacokinetics of each compound in male Sprague-Dawley rats (n = 3 animals per study) were determined after intravenous dosing at 2 mg/kg in 100 % dimethylsulfoxide (DMSO) or after administration of 5 mg/kg by oral gavage with test article formulated in 5 % Tween 80 in OraPlus®. At designated time points, blood was collected via the femoral artery and processed for plasma by centrifugation. Plasma was then transferred into a 96-well container and stored in a freezer maintained at −70 °C. Similar bioanalytical methods were used to determine plasma and brain exposure in animals tested in pharmacodynamic and pain models. Brain samples were homogenized with a 4:1 ratio of water (mL) for every gram of brain tissue. […] Calibration standards were prepared from a 1 mg/mL stock solution of each compound in DMSO with a serial dilution into a blank matrix (plasma or brain homogenate). Liquid chromatography with tandem mass spectrometry was used for the quantitation of each compound in rat plasma and brain. Non-compartmental pharmacokinetic analysis of plasma concentrations was conducted using WinNonlin Enterprise v.5.1.1 (Pharsight Corporation, Mountain View, CA). Brain uptake was calculated as a ratio of concentration in whole brain tissue to that in plasma taken from the same animal at approximately the same time.

[4] = test system: TRPM8 on cutaneous nerve terminals (C fibers); experiment: Skin-nerve preparation, menthol-evoked activation of C fibers; set-up: species or system mouse; conditions: 10 μM; 300 μM menthol; n = 22; p = 0.005
From the text: (§2) Adult C57BL/6 mice were obtained from Jackson Laboratories and used for ex vivo skin-nerve preparations. Mice were allowed to acclimate to the animal facility at the Medical College of Wisconsin, an Association for the Assessment and Accreditation of Laboratory Animal […] (AALAC)-accredited facility, for approximately 1 week following shipment. Animals were housed with up to four other cagemates and had ad libitum access to food pellets and hyper-chlorinated water. Mice were housed on a 14:10 h light-dark cycle in cages containing aspen bedding and paper nesting material. Room temperatures averaged 21 °C. Prior to use, animals were briefly anesthetized with inhaled isoflurane and then sacrificed via cervical dislocation.
(§3) The mouse saphenous skin-nerve in vitro preparation (Koltzenburg et al. [1997]; Stucky et al. [1999]) was used for electrophysiological recordings of cutaneous terminals of primary afferent fibers in situ. […] Once a unit with a signal to noise ratio >2 was identified, the mechanical threshold was determined using calibrated von Frey filaments (range, 0.44–147.0 mN). […]
(§4) Wave forms of action potentials evoked by mechanical stimuli were saved on an oscilloscope for comparison of shape and profile. […] Action potentials were discriminated and counted off-line using a spike histogram software extension. […] All data was also analyzed in a blinded manner.

[5] = test system: cutaneous C fibers; experiment: Skin-nerve preparation, mechanically induced firing in cutaneous C fibers; set-up: species or system mouse; conditions: 10 μM; sustained force 5-245 mN; compared to vehicle
From the text: as §2, §3, §4

[6] = test system: TRPM8-mediated icilin-induced wet-dog shakes in rats; experiment: Icilin-induced wet-dog shake (WDS) model; format: in vivo, rat
Experimental: The TRPM8 antagonist (1, 3, or 10 mg/kg) or vehicle control (5 % Tween 80 in OraPlus®) was administered p.o. 90 min prior to administration of icilin (0.5 mg/kg, 1 ml/kg, i.p., 100 % PEG 400). […] Rats were viewed through transparent Plexiglas® observation cylinders that were placed on a custom, opaque, plastic apparatus such that one rat could not view another rat.
In vivo IC50 and IC90 estimates using WDS model data were determined by fitting a sigmoidal dose-response curve to individual animal number of WDS versus resulting plasma concentration. Behavioral and electrophysiological data are expressed as mean ± standard error of the mean (S.E.M.). Results were analyzed using one-way analysis of variance (ANOVA) with Dunnett’s multiple-comparisons post-hoc test for significance relative to vehicle. […] Actual gram values are plotted on a logarithmic scale Y-axis of the figures for convenience. Statistical calculations and graphs were made using GraphPad Prism 5.01 (GraphPad Software Inc, San Diego, CA). Percent responders to menthol stimulation in the ex vivo skin-nerve preparation were compared under vehicle and antagonist conditions through the use of Fisher’s exact test. Responses of C fibers to increasing mechanical forces under vehicle or antagonist conditions were compared using a two-way ANOVA with a Bonferonni post-hoc analysis.

T1 sequence (Q6RI86 whole entry): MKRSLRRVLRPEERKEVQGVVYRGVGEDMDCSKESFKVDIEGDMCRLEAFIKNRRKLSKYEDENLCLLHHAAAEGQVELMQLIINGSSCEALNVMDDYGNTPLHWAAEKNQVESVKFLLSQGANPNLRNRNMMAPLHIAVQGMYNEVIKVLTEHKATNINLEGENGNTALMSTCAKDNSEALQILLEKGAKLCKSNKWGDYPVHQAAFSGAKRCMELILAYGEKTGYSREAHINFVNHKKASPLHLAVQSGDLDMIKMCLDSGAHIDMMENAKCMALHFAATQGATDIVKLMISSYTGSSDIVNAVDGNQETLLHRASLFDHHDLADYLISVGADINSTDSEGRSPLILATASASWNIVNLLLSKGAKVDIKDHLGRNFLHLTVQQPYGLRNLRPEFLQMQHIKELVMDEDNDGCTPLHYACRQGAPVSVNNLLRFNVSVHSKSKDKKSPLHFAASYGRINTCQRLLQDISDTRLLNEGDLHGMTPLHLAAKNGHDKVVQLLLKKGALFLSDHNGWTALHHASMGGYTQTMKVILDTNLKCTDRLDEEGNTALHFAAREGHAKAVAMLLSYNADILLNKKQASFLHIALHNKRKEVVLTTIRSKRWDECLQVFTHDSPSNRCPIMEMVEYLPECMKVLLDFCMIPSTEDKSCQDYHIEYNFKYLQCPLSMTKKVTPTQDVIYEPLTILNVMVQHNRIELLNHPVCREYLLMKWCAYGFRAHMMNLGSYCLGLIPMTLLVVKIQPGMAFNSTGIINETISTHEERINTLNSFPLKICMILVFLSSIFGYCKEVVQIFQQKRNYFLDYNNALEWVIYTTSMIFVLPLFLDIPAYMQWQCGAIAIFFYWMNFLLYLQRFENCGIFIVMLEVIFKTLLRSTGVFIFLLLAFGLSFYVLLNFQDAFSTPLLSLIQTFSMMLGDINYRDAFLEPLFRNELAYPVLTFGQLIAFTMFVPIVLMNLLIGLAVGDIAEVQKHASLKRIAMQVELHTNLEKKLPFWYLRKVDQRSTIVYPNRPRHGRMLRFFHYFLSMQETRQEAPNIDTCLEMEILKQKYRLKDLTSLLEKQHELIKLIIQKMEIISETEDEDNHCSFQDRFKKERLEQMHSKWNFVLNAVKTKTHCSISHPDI
T2 sequence (O35433 whole entry): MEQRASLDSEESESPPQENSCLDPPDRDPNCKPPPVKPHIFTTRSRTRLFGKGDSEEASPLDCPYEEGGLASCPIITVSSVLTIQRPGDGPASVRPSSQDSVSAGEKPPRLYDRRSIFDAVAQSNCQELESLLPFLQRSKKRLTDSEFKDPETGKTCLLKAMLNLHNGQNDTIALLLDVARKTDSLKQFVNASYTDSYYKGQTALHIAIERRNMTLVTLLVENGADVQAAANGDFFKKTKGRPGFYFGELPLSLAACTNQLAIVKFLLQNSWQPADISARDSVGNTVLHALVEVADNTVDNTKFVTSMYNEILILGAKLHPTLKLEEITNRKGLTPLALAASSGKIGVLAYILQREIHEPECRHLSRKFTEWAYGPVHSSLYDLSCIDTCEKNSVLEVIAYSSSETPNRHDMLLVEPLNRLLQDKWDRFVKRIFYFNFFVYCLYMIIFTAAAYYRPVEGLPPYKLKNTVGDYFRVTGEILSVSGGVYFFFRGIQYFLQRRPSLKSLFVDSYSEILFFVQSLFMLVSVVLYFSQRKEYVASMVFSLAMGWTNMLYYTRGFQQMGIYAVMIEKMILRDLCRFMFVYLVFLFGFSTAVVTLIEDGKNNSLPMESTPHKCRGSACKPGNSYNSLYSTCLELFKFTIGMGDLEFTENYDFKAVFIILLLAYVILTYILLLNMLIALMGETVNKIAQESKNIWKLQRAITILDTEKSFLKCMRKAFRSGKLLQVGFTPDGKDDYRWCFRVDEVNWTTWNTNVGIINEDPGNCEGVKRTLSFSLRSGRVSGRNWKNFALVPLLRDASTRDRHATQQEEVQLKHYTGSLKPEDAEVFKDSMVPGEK

IC50 ([1]; 80 uM AITC, read-out: rTRPA1 IC50): > 25 µM
IC50 ([1]; agonism, read-out: rTRPA1 agonism IC50): > 25 µM
IC50 [2]: > 25 µM
Oral bioavailability ([3]; 5 mg/kg oral gavage): 47%
clearance ([3]; plasma, iv, i.v. 2 mg/kg): 7.83 mL/min/kg
bioavailability ([3]; plasma, 5 mg/kg oral gavage): > 40%
IC90 ([6]; Rattus norvegicus, ip, unbound plasma concentration, icilin 0.5 mg/kg i.p., read-out: Rat PD IC90 (unbound mean in vivo IC90, WDS model)): 0.099 µM
Compound: C[C@H](NC(=O)N1CCc2cccnc2[C@H]1c1ccc(C(F)(F)F)cc1)C(F)(F)F [AMG2850, (R)-8-(4-(trifluoromethyl)phenyl)-N-((S)-1,1,1-trifluoropropan-2-yl)-5,6-dihydro-1,7-naphthyridine-7(8H)-carboxamide]
effect on menthol-evoked firing of C fibers [4]: completely inhibited all menthol-evoked firing
effect on mechanical firing in C fibers [5]: no significant effect
prevention of icilin-induced WDS ([6]; 10 mg/kg p.o., 90 min before icilin 0.5 mg/kg i.p.): Full prevention
ED50 ([6]; Rattus norvegicus, p.o., icilin 0.5 mg/kg i.p., read-out: Rat PD ED50): 1.8 mg/kg
